Source: ChEMBL document CHEMBL1201862, “PubChem BioAssay data set” (2004)
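Compound exposure: 48 hours, 5 concentrations, 96-well plates. GI50 is the concentration that inhibits growth by half.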 Active and inactive are the calls of the source. No stated cut-off is given here; in the data, active = GI50 up to about 1.1 µM and inactive = higher.

Tests used:
Test in all cases: growth of human tumour cells (NCI), 48 h
786-0 = test system: 786-0
A498 = test system: A498
A549 = test system: A549
ACHN = test system: ACHN
BT-549 = test system: BT-549
CAKI-1 = test system: CAKI-1
CCRF-CEM = test system: CCRF-CEM
COLO 205 = test system: COLO 205
DU-145 = test system: DU-145
EKVX = test system: EKVX
HCC 2998 = test system: HCC 2998
HCT-116 = test system: HCT-116
HCT-15 = test system: HCT-15
HL-60 = test system: HL-60
HOP-62 = test system: HOP-62
HOP-92 = test system: HOP-92
HT-29 = test system: HT-29
Hs-578T = test system: Hs-578T
IGROV-1 = test system: IGROV-1
K562 = test system: K562
KM12 = test system: KM12
LOX IMVI = test system: LOX IMVI
M14 = test system: M14
MCF7 = test system: MCF7
MDA-MB-231 = test system: MDA-MB-231
MDA-MB-435 = test system: MDA-MB-435
MDA-N = test system: MDA-N
MOLT-4 = test system: MOLT-4
Malme-3M = test system: Malme-3M
NCI-H226 = test system: NCI-H226
NCI-H23 = test system: NCI-H23
NCI-H460 = test system: NCI-H460
NCI/ADR-RES = test system: NCI/ADR-RES
OVCAR-3 = test system: OVCAR-3
OVCAR-4 = test system: OVCAR-4
OVCAR-5 = test system: OVCAR-5
OVCAR-8 = test system: OVCAR-8
PC-3 = test system: PC-3
RPMI-8226 = test system: RPMI-8226
RXF 393 = test system: RXF 393
SF-268 = test system: SF-268
SF-295 = test system: SF-295
SK-MEL-28 = test system: SK-MEL-28
SK-MEL-2 = test system: SK-MEL-2
SK-MEL-5 = test system: SK-MEL-5
SK-OV-3 = test system: SK-OV-3
SN12C = test system: SN12C
SNB-19 = test system: SNB-19
SNB-75 = test system: SNB-75
SW-620 = test system: SW-620
T47D = test system: T47D
TK-10 = test system: TK-10
U-251 = test system: U-251
UACC-257 = test system: UACC-257
UACC-62 = test system: UACC-62
UO-31 = test system: UO-31
NCI-H522 = test system: NCI-H522
SF-539 = test system: SF-539
SR = test system: SR

COc1ccc(/C=N/NS(=O)(=O)c2ccc(/C=C3\NC(=O)NC3=O)cc2)cc1
GI50 (786-0): 47.1 µM (inactive)
GI50 (A498): > 100 µM (inactive)
GI50 (A549): > 100 µM (inactive)
GI50 (ACHN): > 100 µM (inactive)
GI50 (BT-549): > 100 µM (inactive)
GI50 (CAKI-1): > 100 µM (inactive)
GI50 (CCRF-CEM): > 100 µM (inactive)
GI50 (COLO 205): > 100 µM (inactive)
GI50 (DU-145): > 100 µM (inactive)
GI50 (EKVX): > 100 µM (inactive)
GI50 (HCC 2998): > 100 µM (inactive)
GI50 (HCT-116): > 100 µM (inactive)
GI50 (HCT-15): > 100 µM
GI50 (HL-60): 98.6 µM (inactive)
GI50 (HOP-62): > 100 µM (inactive)
GI50 (HOP-92): > 100 µM (inactive)
GI50 (HT-29): > 100 µM (inactive)
GI50 (Hs-578T): 28.1 µM (inactive)
GI50 (IGROV-1): 87.5 µM (inactive)
GI50 (K562): > 100 µM (inactive)
GI50 (KM12): > 100 µM (inactive)
GI50 (LOX IMVI): > 100 µM (inactive)
GI50 (M14): > 100 µM (inactive)
GI50 (MCF7): > 100 µM (inactive)
GI50 (MDA-MB-231): 11.2 µM (inactive)
GI50 (MDA-MB-435): > 100 µM (inactive)
GI50 (MDA-N): > 100 µM (inactive)
GI50 (MOLT-4): > 100 µM (inactive)
GI50 (Malme-3M): > 100 µM (inactive)
GI50 (NCI-H226): > 100 µM (inactive)
GI50 (NCI-H23): > 100 µM (inactive)
GI50 (NCI-H460): > 100 µM (inactive)
GI50 (NCI/ADR-RES): > 100 µM (inactive)
GI50 (OVCAR-3): > 100 µM (inactive)
GI50 (OVCAR-4): > 100 µM (inactive)
GI50 (OVCAR-5): > 100 µM (inactive)
GI50 (OVCAR-8): 51.5 µM (inactive)
GI50 (PC-3): > 100 µM (inactive)
GI50 (RPMI-8226): > 100 µM (inactive)
GI50 (RXF 393): > 100 µM (inactive)
GI50 (SF-268): 28.1 µM (inactive)
GI50 (SF-295): 89.5 µM (inactive)
GI50 (SK-MEL-28): > 100 µM (inactive)
GI50 (SK-MEL-2): > 100 µM (inactive)
GI50 (SK-MEL-5): > 100 µM (inactive)
GI50 (SK-OV-3): 73.5 µM (inactive)
GI50 (SN12C): > 100 µM (inactive)
GI50 (SNB-19): 90.8 µM (inactive)
GI50 (SNB-75): 23.9 µM (inactive)
GI50 (SW-620): > 100 µM (inactive)
GI50 (T47D): > 100 µM (inactive)
GI50 (TK-10): > 100 µM (inactive)
GI50 (U-251): 45.2 µM (inactive)
GI50 (UACC-257): > 100 µM (inactive)
GI50 (UACC-62): > 100 µM (inactive)
GI50 (UO-31): > 100 µM (inactive)

O=c1c2ccccc2nc2n1C(c1ccc([N+](=O)[O-])cc1)C2(c1ccccc1)c1ccccc1 (stereo unspecified)
GI50 (786-0): > 100 µM (inactive)
GI50 (A498): > 100 µM (inactive)
GI50 (A549): 12.9 µM (inactive)
GI50 (ACHN): > 100 µM (inactive)
GI50 (BT-549): > 100 µM (inactive)
GI50 (CAKI-1): > 100 µM (inactive)
GI50 (CCRF-CEM): 8.45 µM (inactive)
GI50 (COLO 205): 8.3 µM (inactive)
GI50 (DU-145): > 100 µM (inactive)
GI50 (EKVX): > 100 µM (inactive)
GI50 (HCT-116): > 100 µM (inactive)
GI50 (HCT-15): > 100 µM
GI50 (HL-60): 37.2 µM (inactive)
GI50 (HOP-62): > 100 µM (inactive)
GI50 (HOP-92): > 100 µM (inactive)
GI50 (HT-29): 9.98 µM (inactive)
GI50 (Hs-578T): 66.2 µM (inactive)
GI50 (IGROV-1): > 100 µM (inactive)
GI50 (KM12): > 100 µM (inactive)
GI50 (LOX IMVI): > 100 µM (inactive)
GI50 (M14): > 100 µM (inactive)
GI50 (MCF7): 54.6 µM (inactive)
GI50 (MDA-MB-231): > 100 µM (inactive)
GI50 (MDA-MB-435): > 100 µM (inactive)
GI50 (MDA-N): > 100 µM (inactive)
GI50 (MOLT-4): 5.46 µM (inactive)
GI50 (Malme-3M): > 100 µM (inactive)
GI50 (NCI-H23): > 100 µM (inactive)
GI50 (NCI-H460): > 100 µM (inactive)
GI50 (NCI-H522): > 100 µM (inactive)
GI50 (NCI/ADR-RES): > 100 µM (inactive)
GI50 (OVCAR-3): > 100 µM (inactive)
GI50 (OVCAR-4): > 100 µM (inactive)
GI50 (OVCAR-5): > 100 µM (inactive)
GI50 (OVCAR-8): > 100 µM (inactive)
GI50 (PC-3): 24 µM (inactive)
GI50 (RPMI-8226): 8.2 µM (inactive)
GI50 (RXF 393): > 100 µM (inactive)
GI50 (SF-268): > 100 µM (inactive)
GI50 (SF-295): > 100 µM (inactive)
GI50 (SF-539): > 100 µM (inactive)
GI50 (SK-MEL-28): > 100 µM (inactive)
GI50 (SK-MEL-2): > 100 µM (inactive)
GI50 (SK-MEL-5): > 100 µM (inactive)
GI50 (SK-OV-3): > 100 µM (inactive)
GI50 (SN12C): > 100 µM (inactive)
GI50 (SNB-19): 14.5 µM (inactive)
GI50 (SW-620): > 100 µM (inactive)
GI50 (T47D): > 100 µM (inactive)
GI50 (TK-10): > 100 µM (inactive)
GI50 (U-251): > 100 µM (inactive)
GI50 (UACC-257): > 100 µM (inactive)
GI50 (UACC-62): > 100 µM (inactive)

CNC(=O)C(NC(=O)[C@H](CC(C)C)NC(=O)[C@@H](S)CCN1C(=O)N(C)C(C)(C)C1=O)C(C)(C)C (stereo partly specified)
GI50 (786-0): > 100 µM (inactive)
GI50 (A498): > 100 µM (inactive)
GI50 (A549): > 100 µM (inactive)
GI50 (ACHN): > 100 µM (inactive)
GI50 (BT-549): > 100 µM (inactive)
GI50 (CAKI-1): > 100 µM (inactive)
GI50 (DU-145): > 100 µM (inactive)
GI50 (EKVX): > 100 µM (inactive)
GI50 (HCC 2998): > 100 µM (inactive)
GI50 (HCT-116): > 100 µM (inactive)
GI50 (HCT-15): > 100 µM
GI50 (HL-60): > 100 µM (inactive)
GI50 (HOP-62): > 100 µM (inactive)
GI50 (HOP-92): > 100 µM (inactive)
GI50 (HT-29): > 100 µM (inactive)
GI50 (Hs-578T): > 100 µM (inactive)
GI50 (IGROV-1): > 100 µM (inactive)
GI50 (K562): 79.6 µM (inactive)
GI50 (KM12): > 100 µM (inactive)
GI50 (LOX IMVI): 2.91 µM (inactive)
GI50 (M14): > 100 µM (inactive)
GI50 (MCF7): > 100 µM (inactive)
GI50 (MDA-MB-435): > 100 µM (inactive)
GI50 (MDA-N): > 100 µM (inactive)
GI50 (MOLT-4): > 100 µM (inactive)
GI50 (Malme-3M): > 100 µM (inactive)
GI50 (NCI-H226): > 100 µM (inactive)
GI50 (NCI-H23): > 100 µM (inactive)
GI50 (NCI-H460): > 100 µM (inactive)
GI50 (NCI-H522): > 100 µM (inactive)
GI50 (NCI/ADR-RES): > 100 µM (inactive)
GI50 (OVCAR-4): > 100 µM (inactive)
GI50 (OVCAR-5): > 100 µM (inactive)
GI50 (OVCAR-8): > 100 µM (inactive)
GI50 (PC-3): > 100 µM (inactive)
GI50 (RPMI-8226): > 100 µM (inactive)
GI50 (RXF 393): > 100 µM (inactive)
GI50 (SF-268): > 100 µM (inactive)
GI50 (SF-295): > 100 µM (inactive)
GI50 (SK-MEL-28): > 100 µM (inactive)
GI50 (SK-MEL-2): > 100 µM (inactive)
GI50 (SK-MEL-5): > 100 µM (inactive)
GI50 (SK-OV-3): > 100 µM (inactive)
GI50 (SN12C): > 100 µM (inactive)
GI50 (SNB-19): > 100 µM (inactive)
GI50 (SR): > 100 µM (inactive)
GI50 (SW-620): > 100 µM (inactive)
GI50 (T47D): > 100 µM (inactive)
GI50 (TK-10): > 100 µM (inactive)
GI50 (UACC-257): > 100 µM (inactive)
GI50 (UACC-62): > 100 µM (inactive)
GI50 (UO-31): > 100 µM (inactive)
